{"source": "paper PMC5817390", "about": "(The Pharmacogenomics Journal, 2016)", "key": {"[1]": {"type": "in vivo, human (healthy subjects)", "settings": "for AUC(0-inf): AUCinf"}, "[2]": {"settings": "cited from earlier work"}, "[3]": {"system": "P-glycoprotein (P-gp; MDR1)", "settings": "in vitro studies; cited from earlier work"}, "[4]": {"settings": "single 60-mg dose, healthy subjects, 14 phase 1 studies; cited from earlier work"}, "[5]": {"system": "organic anion transporter protein 1B1 (OATP1B1)", "settings": "in vitro studies; cited from earlier work"}, "[6]": {"settings": "on a molar basis; ref data on file; cited from earlier work"}, "[7]": {"settings": "healthy volunteers; cited from earlier work"}, "[8]": {"settings": "ABCB1 rs1045642 CT, single 60-mg edoxaban, mean±s.d."}, "[9]": {"settings": "SLCO1B1 rs4149056 C-carriers, single 60-mg edoxaban, mean±s.d."}, "[10]": {"settings": "SLCO1B1 rs4149056 TT, single 60-mg edoxaban, mean±s.d."}, "[11]": {"settings": "single 60-mg edoxaban, healthy subjects"}, "[12]": {"settings": "SLCO1B1 rs4149056 C-carriers vs TT homozygotes, with 90% CI"}, "[13]": {"settings": "SLCO1B1 rs4149056 TT, M4 to edoxaban, adjusted for molecular weights, mean±s.d."}}, "note": "Like-named read-outs stand apart in the source and are kept apart here."}
{"compound": "CN1CCc2nc(C(=O)N[C@@H]3C[C@@H](C(=O)N(C)C)CC[C@@H]3NC(=O)C(=O)Nc3ccc(Cl)cn3)sc2C1", "note": "[Edoxaban, edoxaban]", "values": [{"measurement": "AUC0–24", "setting": "[1]; [8]", "value": "1671 ± 420.3", "unit": "ng·h/mL"}, {"measurement": "AUCinf", "setting": "[1]; [8]", "value": "1845 ± 417.8", "unit": "ng·h/mL"}, {"measurement": "AUC0–24", "setting": "[1]; [9]", "value": "1643.8 ± 392.9", "unit": "ng·h/mL"}, {"measurement": "AUCinf", "setting": "[1]; [9]", "value": "1815.5 ± 382.4", "unit": "ng·h/mL"}, {"measurement": "AUC0–24", "setting": "[1]; [10]", "value": "1644.1 ± 440.6", "unit": "ng·h/mL"}, {"measurement": "AUCinf", "setting": "[1]; [10]", "value": "1823.5 ± 444.9", "unit": "ng·h/mL"}, {"measurement": "AUC(0-t)", "setting": "[1]; both, human, in vivo, 60 mg, AUC0–24, ABCB1 rs1045642 CC, single 60-mg edoxaban, mean±s.d.", "value": "1610 ± 441", "unit": "ng·h/mL"}, {"measurement": "AUC(0-t)", "setting": "[1]; both, human, in vivo, 60 mg, AUC0–24, ABCB1 rs1045642 TT, single 60-mg edoxaban, mean±s.d.", "value": "1680 ± 442", "unit": "ng·h/mL"}, {"measurement": "AUC(0-inf)", "setting": "[1]; both, human, in vivo, 60 mg, ABCB1 rs1045642 CC, single 60-mg edoxaban, mean±s.d.", "value": "1790 ± 450", "unit": "ng·h/mL"}, {"measurement": "AUC(0-inf)", "setting": "[1]; both, human, in vivo, 60 mg, ABCB1 rs1045642 TT, single 60-mg edoxaban, mean±s.d.", "value": "1860 ± 436", "unit": "ng·h/mL"}, {"measurement": "AUC(0-t)", "setting": "[1]; both, human, in vivo, 60 mg, AUClast, ABCB1 rs1045642 CC, single 60-mg edoxaban, fasting, plasma, mean±s.d.", "value": "1760 ± 447", "unit": "ng·h/mL"}, {"measurement": "AUC(0-t)", "setting": "[1]; both, human, in vivo, 60 mg, AUClast, ABCB1 rs1045642 CT, single 60-mg edoxaban, fasting, plasma, mean±s.d.", "value": "1810 ± 417", "unit": "ng·h/mL"}, {"measurement": "AUC(0-t)", "setting": "[1]; both, human, in vivo, 60 mg, AUClast, ABCB1 rs1045642 TT, single 60-mg edoxaban, fasting, plasma, mean±s.d.", "value": "1820 ± 435", "unit": "ng·h/mL"}, {"measurement": "AUC(0-t)", "setting": "[1]; both, human, in vivo, 60 mg, AUClast, SLCO1B1 rs4149056 C-carriers, single 60-mg edoxaban, mean±s.d.", "value": "1780 ± 381", "unit": "ng·h/mL"}, {"measurement": "AUC(0-t)", "setting": "[1]; both, human, in vivo, 60 mg, AUClast, SLCO1B1 rs4149056 TT, single 60-mg edoxaban, mean±s.d.", "value": "1790 ± 443", "unit": "ng·h/mL"}, {"measurement": "concentration at 24 h", "setting": "[1]; both, human, in vivo, 60 mg, C24, ABCB1 rs1045642 CC, plasma concentration at 24 h postdose, single 60-mg edoxaban, mean±s.d.", "value": "12.5 ± 5.11", "unit": "ng/mL"}, {"measurement": "concentration at 24 h", "setting": "[1]; both, human, in vivo, 60 mg, C24, ABCB1 rs1045642 TT, plasma concentration at 24 h postdose, single 60-mg edoxaban, mean±s.d.", "value": "12.3 ± 6.46", "unit": "ng/mL"}, {"measurement": "concentration at 24 h", "setting": "[1]; both, human, in vivo, 60 mg, C24, SLCO1B1 rs4149056 C-carriers, 24 h postdose, single 60-mg edoxaban, mean±s.d.", "value": "11.6 ± 4.8", "unit": "ng/mL"}, {"measurement": "concentration at 24 h", "setting": "[1]; both, human, in vivo, 60 mg, C24, SLCO1B1 rs4149056 TT, 24 h postdose, single 60-mg edoxaban, mean±s.d.", "value": "12.3 ± 5.4", "unit": "ng/mL"}, {"measurement": "Cmax", "setting": "[1]; both, human, in vivo, 60 mg, Cmax, ABCB1 rs1045642 TT, single 60-mg edoxaban, mean±s.d.", "value": "261 ± 101", "unit": "ng/mL"}, {"measurement": "effect of ABCB1 C3435T SNP on exposure", "setting": "[1]; [11]", "value": "does not significantly affect"}, {"measurement": "effect of SLCO1B1 T521C SNP on exposure", "setting": "[1]; [11]", "value": "does not influence"}, {"measurement": "absorbed dose renally eliminated", "setting": "[2]", "value": "~ 50%"}, {"measurement": "absorbed drug eliminated unmodified", "setting": "[2]", "value": "~73", "unit": "%"}, {"measurement": "substrate of P-glycoprotein", "setting": "[3]", "value": "substrate"}, {"measurement": "tolerability", "setting": "[4]", "value": "generally well tolerated"}]}
{"compound": "CN1CCc2nc(C(=O)N[C@@H]3C[C@@H](C(=O)O)CC[C@@H]3NC(=O)C(=O)Nc3ccc(Cl)cn3)sc2C1", "note": "[M4]", "values": [{"measurement": "geometric LS means ratio, AUCinf", "setting": "[1]; [12]", "value": "126.9 (90% CI, 117.4–137.1)"}, {"measurement": "geometric LS means ratio, C24", "setting": "[1]; [12]", "value": "114.9 (90% CI, 104.0–127.0)"}, {"measurement": "geometric LS means ratio, Cmax", "setting": "[1]; [12]", "value": "124.1 (90% CI, 111.9–137.5)"}, {"measurement": "C24", "setting": "[1]; SLCO1B1 rs4149056 C-carriers, 24 h postdose, single 60-mg edoxaban, mean±s.d.", "value": "1.3 ± 0.74", "unit": "ng/mL"}, {"measurement": "AUC0–24", "setting": "[1]; [9]", "value": "170.0 ± 73.0", "unit": "ng·h/mL"}, {"measurement": "AUCinf", "setting": "[1]; [9]", "value": "191.9 ± 76.4", "unit": "ng·h/mL"}, {"measurement": "AUClast", "setting": "[1]; [9]", "value": "184.6 ± 75.6", "unit": "ng·h/mL"}, {"measurement": "Cmax", "setting": "[1]; [9]", "value": "26.7 ± 13.6", "unit": "ng/mL"}, {"measurement": "C24", "setting": "[1]; SLCO1B1 rs4149056 TT, 24 h postdose, single 60-mg edoxaban, mean±s.d.", "value": "1.1 ± 0.57", "unit": "ng/mL"}, {"measurement": "MPR AUCinf (metabolite to parent ratio)", "setting": "[1]; [13]", "value": "8.7±2.9"}, {"measurement": "MPR AUClast (metabolite to parent ratio)", "setting": "[1]; [13]", "value": "8.7±2.9"}, {"measurement": "MPR Cmax (metabolite to parent ratio)", "setting": "[1]; [13]", "value": "8.8±3.1"}, {"measurement": "AUC0–24", "setting": "[1]; [10]", "value": "134.7 ± 57.2", "unit": "ng·h/mL"}, {"measurement": "AUCinf", "setting": "[1]; [10]", "value": "150.2 ± 61.4", "unit": "ng·h/mL"}, {"measurement": "AUClast", "setting": "[1]; [10]", "value": "147.1 ± 60.7", "unit": "ng·h/mL"}, {"measurement": "Cmax", "setting": "[1]; [10]", "value": "21.2 ± 10.7", "unit": "ng/mL"}, {"measurement": "plasma M4 concentration as share of edoxaban levels", "setting": "[1]; plasma, healthy subjects", "value": "< 10", "unit": "%"}, {"measurement": "effect of SLCO1B1 T521C SNP on exposure", "setting": "[1]; [11]", "value": "elevated among C-carriers"}, {"measurement": "share of the total anticoagulant exposure", "setting": "[2]", "value": "< 10", "unit": "%"}, {"measurement": "substrate of OATP1B1", "setting": "[5]", "value": "substrate"}, {"measurement": "anticoagulant activity compared with edoxaban", "setting": "[6]", "value": "similar"}, {"measurement": "levels on coadministration of cyclosporine or rifampin", "setting": "[7]", "value": "increase"}]}
